Molecular target: T1, His-dynein 1 (Homo sapiens, UniProt Q14204)
T1 construct: (wild-type, K1912A, K2601A, AA 1320–4646, uniprot: Q14204); made in house; host or cells: Sf9 insect cells (baculovirus)
Assay: Microtubule-stimulated ATPase activity of His-dynein 1
Assay type: biochemical
Details: 1 mM MgATP
Description: ATPase assays using recombinant Dynein 1 (wild-type and mutants) were performed in a buffer containing 25 mM PIPES pH7.0, 30 mM KCl, 1 mM EGTA, 5 mM MgCl2, 0.01% triton X-100, 1 mM DTT, and 20–30 µM taxol (if microtubules were present). For typical conditions, enzyme was incubated with varying concentrations of inhibitor in buffer containing 2% DMSO for 10 min in a volume of 10 μL. When microtubules were present, they were polymerized by stepwise addition of taxol and high concentrations of DMSO (30% final during polymerization reactions), and re-suspended following centrifugation in ATPase buffer to a concentration up to threefold above the final concentration used in the reaction (bovine brain tubulin, no fluoresecent label). For microtubule-stimulated reactions in dose-response format, reactions were assembled by 1:1:1 mixture of 3x enzyme stock, 3x compound stock (in buffer with 6% DMSO), and 3x microtubule stock to each well. For microtubule-stimulated ATPase assays at tubulin concentrations > 2.5 µM, enzyme stock was supplemented with compound stock in pure DMSO (resulting in an intermediate DMSO concentration of 6%), and then the microtubule stock was added. Final enzyme concentrations were 30–100 nM for GFP-dynein 1, wild-type 6x-His-dynein 1, and K2601A 6x-His-dynein 1 and up to 500 nM for K1912A 6x-His-dynein 1. The final DMSO concentration was 2% in all ATPase assays performed.
Assembled reaction mixtures (including enzyme, compound, and microtubules, if present) were incubated for 10 min before addition of ATP. Each ATPase reaction was initiated by addition of 2 μL of a 6x ATP stock containing trace γ-^32P ATP (3 µCi/mmol, 3 µCi/mL, Perkin Elmer) and allowed to proceed for a time predetermined to lie within the linear range of the assay (20–30 min). For typical conditions, ATP was used at a final concentration of 1 mM. Reactions were quenched by the addition of 12 µL 100 mM EDTA, and 2 μL of each quenched reaction was spotted onto PEI-cellulose TLC plates (Millipore). Plates were developed in a glass chamber with a freshly prepared solution of 150 mM formic acid and 150 mM LiCl, dried, exposed to a storage phosphor tray (GE Healthsciences), and scanned on a Typhoon imaging system (GE Healthsciences). The fraction of γ-phosphate hydrolyzed in each condition was quantified using FIJI.
Curve fitting: Where dose-response experiments are fit and IC50values given, these are obtained as follows: Individual experiments are treated as separate. […]

T1 sequence (Q14204 1320-4646): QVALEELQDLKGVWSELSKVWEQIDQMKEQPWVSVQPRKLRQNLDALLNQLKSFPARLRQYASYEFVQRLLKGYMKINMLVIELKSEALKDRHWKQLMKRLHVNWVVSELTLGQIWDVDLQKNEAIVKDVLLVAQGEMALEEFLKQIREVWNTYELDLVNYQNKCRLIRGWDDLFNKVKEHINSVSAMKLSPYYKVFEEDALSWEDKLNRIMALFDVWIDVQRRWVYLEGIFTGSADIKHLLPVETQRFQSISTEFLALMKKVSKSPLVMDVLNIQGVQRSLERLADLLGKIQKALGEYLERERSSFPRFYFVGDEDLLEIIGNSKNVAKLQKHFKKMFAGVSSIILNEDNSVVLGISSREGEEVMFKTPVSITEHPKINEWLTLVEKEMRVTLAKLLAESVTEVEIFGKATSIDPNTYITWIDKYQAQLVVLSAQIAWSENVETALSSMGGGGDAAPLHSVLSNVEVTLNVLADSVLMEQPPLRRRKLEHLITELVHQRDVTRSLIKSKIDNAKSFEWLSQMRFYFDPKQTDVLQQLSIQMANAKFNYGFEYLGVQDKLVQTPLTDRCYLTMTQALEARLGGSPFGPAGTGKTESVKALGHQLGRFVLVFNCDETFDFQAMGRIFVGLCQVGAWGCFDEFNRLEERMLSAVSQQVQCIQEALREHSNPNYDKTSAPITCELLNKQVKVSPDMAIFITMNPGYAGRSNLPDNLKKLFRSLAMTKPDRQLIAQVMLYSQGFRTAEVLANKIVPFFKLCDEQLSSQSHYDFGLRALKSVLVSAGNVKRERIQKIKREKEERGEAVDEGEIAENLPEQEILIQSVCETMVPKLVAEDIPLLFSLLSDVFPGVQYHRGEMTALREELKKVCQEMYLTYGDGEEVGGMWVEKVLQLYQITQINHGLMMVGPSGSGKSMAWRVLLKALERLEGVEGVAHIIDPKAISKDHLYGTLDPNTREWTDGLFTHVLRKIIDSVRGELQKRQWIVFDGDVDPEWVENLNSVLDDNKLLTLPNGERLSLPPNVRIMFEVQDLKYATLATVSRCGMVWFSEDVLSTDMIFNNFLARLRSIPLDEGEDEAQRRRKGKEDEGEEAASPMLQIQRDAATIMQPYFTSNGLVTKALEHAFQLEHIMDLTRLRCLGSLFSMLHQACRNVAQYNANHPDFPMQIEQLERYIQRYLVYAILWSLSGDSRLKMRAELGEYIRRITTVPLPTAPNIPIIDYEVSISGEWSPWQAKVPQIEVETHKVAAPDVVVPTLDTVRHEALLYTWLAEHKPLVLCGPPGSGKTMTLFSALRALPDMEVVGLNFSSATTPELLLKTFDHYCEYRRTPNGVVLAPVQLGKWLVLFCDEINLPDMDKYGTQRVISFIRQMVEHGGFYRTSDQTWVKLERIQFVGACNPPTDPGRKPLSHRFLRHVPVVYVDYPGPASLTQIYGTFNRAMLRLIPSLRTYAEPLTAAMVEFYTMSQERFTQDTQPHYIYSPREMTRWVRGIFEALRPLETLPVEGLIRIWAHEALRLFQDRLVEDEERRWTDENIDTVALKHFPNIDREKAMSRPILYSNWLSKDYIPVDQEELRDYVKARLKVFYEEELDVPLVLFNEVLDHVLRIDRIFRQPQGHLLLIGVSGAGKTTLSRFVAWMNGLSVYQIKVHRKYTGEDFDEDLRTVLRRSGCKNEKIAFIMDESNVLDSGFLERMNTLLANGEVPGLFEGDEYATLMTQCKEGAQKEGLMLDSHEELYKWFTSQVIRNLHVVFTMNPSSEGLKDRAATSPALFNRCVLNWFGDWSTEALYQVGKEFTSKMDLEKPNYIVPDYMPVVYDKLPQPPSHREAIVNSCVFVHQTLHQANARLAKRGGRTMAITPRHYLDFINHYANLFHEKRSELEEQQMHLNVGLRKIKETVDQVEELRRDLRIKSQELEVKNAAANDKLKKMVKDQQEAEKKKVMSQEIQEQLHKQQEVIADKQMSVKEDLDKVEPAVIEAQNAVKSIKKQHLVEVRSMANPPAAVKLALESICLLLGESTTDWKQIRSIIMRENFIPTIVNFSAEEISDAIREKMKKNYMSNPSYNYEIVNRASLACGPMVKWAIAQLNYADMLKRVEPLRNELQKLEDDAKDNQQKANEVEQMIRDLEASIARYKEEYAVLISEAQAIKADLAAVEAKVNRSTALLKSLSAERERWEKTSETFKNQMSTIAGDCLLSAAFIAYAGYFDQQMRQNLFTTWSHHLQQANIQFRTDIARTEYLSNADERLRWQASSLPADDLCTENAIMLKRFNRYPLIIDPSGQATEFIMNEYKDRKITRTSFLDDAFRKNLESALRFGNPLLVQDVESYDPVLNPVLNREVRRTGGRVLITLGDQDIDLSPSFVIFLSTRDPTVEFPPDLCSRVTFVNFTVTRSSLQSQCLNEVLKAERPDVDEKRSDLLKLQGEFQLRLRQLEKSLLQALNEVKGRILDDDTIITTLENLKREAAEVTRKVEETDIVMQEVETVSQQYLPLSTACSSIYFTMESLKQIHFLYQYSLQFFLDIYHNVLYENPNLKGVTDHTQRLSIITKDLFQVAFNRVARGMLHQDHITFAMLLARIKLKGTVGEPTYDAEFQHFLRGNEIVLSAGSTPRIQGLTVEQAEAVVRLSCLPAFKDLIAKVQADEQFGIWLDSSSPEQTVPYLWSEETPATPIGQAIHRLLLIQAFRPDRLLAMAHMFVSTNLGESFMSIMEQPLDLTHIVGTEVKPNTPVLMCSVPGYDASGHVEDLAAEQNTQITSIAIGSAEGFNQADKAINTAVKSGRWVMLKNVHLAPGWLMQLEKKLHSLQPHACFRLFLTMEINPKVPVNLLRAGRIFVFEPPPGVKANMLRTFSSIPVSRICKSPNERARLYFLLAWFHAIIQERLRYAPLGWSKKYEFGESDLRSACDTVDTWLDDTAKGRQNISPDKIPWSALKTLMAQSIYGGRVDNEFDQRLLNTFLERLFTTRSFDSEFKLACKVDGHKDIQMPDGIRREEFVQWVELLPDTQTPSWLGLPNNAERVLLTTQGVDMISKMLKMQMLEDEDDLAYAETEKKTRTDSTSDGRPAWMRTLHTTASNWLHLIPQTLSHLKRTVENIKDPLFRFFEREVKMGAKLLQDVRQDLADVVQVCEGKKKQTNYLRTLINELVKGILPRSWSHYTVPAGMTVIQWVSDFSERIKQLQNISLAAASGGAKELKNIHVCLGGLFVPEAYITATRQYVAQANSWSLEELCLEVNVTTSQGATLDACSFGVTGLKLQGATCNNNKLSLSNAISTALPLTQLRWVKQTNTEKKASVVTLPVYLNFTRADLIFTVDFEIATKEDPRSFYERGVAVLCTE

| Structure (SMILES) | Plateau of microtubule-stimulated ATPase activity at increasing compound concentrations (2.5 µM microtubules) | IC50 (2.5 µM microtubules, fit to non-zero plateau, read-out: IC50, inhibition of microtubule-stimulated His-dynein 1 ATPase activity) | Residual rate of microtubule-stimulated ATPase activity (30 µM compound, 8 or 15 µM microtubules) |
| --- | --- | --- | --- |
| N#C/C(C(=O)c1ccc(Cl)cc1Cl)=C1\NC(=O)c2ccc(Cl)cc2N1 [ciliobrevin D, reference compound] | did not reveal a plateau |  |  |
| N#Cc1c(C2(c3ccc(Cl)cc3)CC2)nn2c1[nH]c(=O)c1cc(I)ccc12 [Compound 8, 2-[1-(4-chlorophenyl)cyclopropyl]-7-iodo-5-oxo-4H-pyrazolo[1,5-a]quinazoline-3-carbonitrile] | ~ 0.5 s^−1 | 6.2 ± 1.6 µM | ~ 0.5 s^−1 |

Reference: PMC5478271, “Chemical structure-guided design of dynapyrazoles, cell-permeable dynein inhibitors with a unique mode of action” (eLife, 2017)
